Assay results published in patent publication US6287553A, “Skin care composition” (Unilever Home & Personal Care USA, division of Conopco, Inc., priority 1998, dated 2001).
Entries after “also recorded” stand apart in the source; their conditions may differ.

Key:
procollagen-I = test: Immunohistochemical analysis of procollagen-I expression in photodamaged forearm skin after topical retinoic acid; type: in vivo, human (women)
Text: (§1) Two groups of women were recruited with identical or nearly identical degrees of mild to moderate photodamage on each outer forearm. They were supplied with 0.05% retinoic acid in a moisturising base (Retinova®) and also with a colour matched moisturising cream with similar sensory characteristics (Dermacare® lotion) but no active ingredients as a placebo control. Each participant of the two groups applied the Retinova® to one outer forearm and placebo (Dermacare®) to the other outer forearm. Group 1 applied the products daily to their outer forearms for 14 weeks and the Group 2 applied the products to their outer forearms for 28 weeks. At the end of the studies two full thickness 4 mm punch biopsies were taken from the treated areas of each forearm. Immunohistochemical analysis of the biopsy tissue taken from the participants was performed to identify the effect of retinoic acid treatment on the expression of the skin extracellular matrix components decorin and procollagen-I as compared with the placebo treated forearms. The following procedure was followed:
(§2) Antibody dilution buffer for wax sections was composed of Tris Buffered Saline (TBS), 3% bovine serum albumin (BSA), 0.05% Triton X-100 and 0.05% sodium azide. Primary antibodies for procollagen-I (amino terminal) were obtained from Chemicon International Inc. (cat# MAB 1912, rat IgG1) and used on wax sections at a dilution of 1:800, overnight at 4° C. after the section had been pre-treated trypsin (0.5 mg/ml, 25 minutes, 37° C.). Primary antibodies for decorin were obtained from Biogenesis (rabbit polyclonal) and used on wax sections at a dilution of 1:800, overnight at 4° C. Anti-rat biotinylated secondary antibodies were obtained from DAKO (cat# E0468, rabbit polyclonal) was applied to wax sections at a dilution of 1:400. Anti-rabbit biotinylated secondary antibodies were obtained from Amersham (cat# RPN 1004, donkey polyclonal) was applied to wax sections at a dilution of 1:400. Streptavidin conjugated alkaline phosphatase was obtained from Zymed (cat# 43-4322) and used at a concentration of 1:2500. […]

decorin [1] = test: Immunohistochemical analysis of decorin expression in photodamaged forearm skin after topical retinoic acid; type: in vivo, human (women)
Text: as §1, §2

decorin [2] = test: Decorin synthesis in human dermal fibroblasts (dot blot assay of conditioned medium); type: cell-based; conditions: Fibroblast, 24 h, read-out: upregulation of decorin synthesis
Description: Preparation of Dermal Fibroblast Conditioned Medium Primary human foreskin fibroblasts at passage 2 (P2) were seeded into 12-well plates at 10000 cells/cm^2 and maintained for 24 hours in an atmosphere of 5% carbon dioxide and 4% oxygen in Dulbeccos Modified Eagles Medium (DMEM) supplemented with 10% foetal calf serum. After this time the cells were washed with serum free DMEM and then incubated in fresh serum free DMEM for a further 60 hours. The fibroblast monolayers were then washed again with serum free DMEM. Test reagents and vehicle controls were added to the cells in triplicate in a final volume of 0.4 ml/well fresh serum free DMEM and incubated for a further 24 hours. This fibroblast conditioned medium was either analysed immediately or snap frozen in liquid nitrogen and stored at -70° C. for future analysis. The cells were then counted and data from the dot-blot analysis subsequently standardised to cell number.
Samples of conditioned medium from dermal fibroblasts treated with vehicle (as a control) or test reagents were supplemented with 20 mM dithiothreitol (1:10 dilution of 200 mM stock solution) and 0.1% sodium dodecylsulphate (1:100 dilution of 10% stock solution), mixed well and then incubated at 75° C. for 2 minutes. […]

skin = conditions: topical treatment of skin; Griffiths et al. 1993; cited from earlier work
keratinocytes = test: Keratinocyte SDS viability assay (Neutral Red); type: cell-based; conditions: 24 h, read-out: cell viability produced by SDS
Description: Keratinocytes were grown in 96 well plates to approximately 80% confluency in keratinocyte growth medium (KGM) which was then replaced with KGM without hydrocortisone for 24-48 hours. The cells were then treated with a concentration of sodium dodecyl sulphate (SDS) which will produce cell viability of approximately 50% ([…]). The test compounds "c9 t11 CLA" and "t10 c12 CLA" in table 7 are the same as the agents described above in Example 3. […] After incubating for 24 hours the medium was removed and the viability determined by the Neutral Red method. With this method the cells were incubated for 3 hours in KGM containing 25 μg/ml neutral red after which the medium was removed and the cells were then extracted with […] of 1% (v/v) acetic acid, 50% (v/v) ethanol for 30 min units. The absorbance of the extract at 562 nm was determined and the viability evaluated by reference to wells which contained neither SDS nor test compounds.

[3] = Group 1 after 14 weeks, 0.05% retinoic acid (Retinova) daily vs placebo, total 16 participants
[4] = Group 2 after 28 weeks, 0.05% retinoic acid (Retinova) vs placebo, total 15 participants
[5] = topical retinoic acid (Retinova) vs placebo (Dermacare)

| SMILES | No. of Participants showing marked increase in expression of procollagen-I (procollagen-I; [3]) | No. of Participants showing marked increase in expression of procollagen-I (procollagen-I; [4]) | procollagen-I expression in photodamaged skin (procollagen-I; [5]) | No. of Participants showing marked increase in expression of decorin (decorin [1]; [3]) | No. of Participants showing marked increase in expression of decorin (decorin [1]; [4]) | decorin expression in photodamaged skin (decorin [1]; [5]) | activity at 1 µM (decorin [2]) | wrinkle effacement / dermal repair (skin) | viability at 5 µg/mL (keratinocytes) |
| --- | --- | --- | --- | --- | --- | --- | --- | --- | --- |
| CC1=C(/C=C/C(C)=C/C=C/C(C)=C/C(=O)O)C(C)(C)CCC1 [Retinoic acid, retinoic acid] | 9 No. of Participants | 10 No. of Participants | marked upregulation | 10 No. of Participants | 15 No. of Participants | marked upregulation | 138 ± 14% | induces dermal repair of photodamaged skin; also recorded: wrinkle effacement and dermal repair following topical treatment of skin with retinoic acid arises through new collagen deposition and synthesis in the skin |  |
| CCCCCCCCCCCCOS(=O)(=O)[O-].[Na+] [sodium dodecyl sulphate (SDS), sodium dodecyl sulphate] |  |  |  |  |  |  |  |  | ~50% |
